ChEMBL document CHEMBL1201862, “PubChem BioAssay data set” (2004)
The source made the active and inactive calls.

Key:
[1] = molecular target: T1, Short transient receptor potential channel 4 (Mus musculus, UniProt Q9QUQ5); assay: mouse TRPC4 channel inhibitors, dose response, cell-based, HEK293 TRPC4/mu-opioid, Fluo-4 calcium (AID 434942); format: functional;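 further: potency of inhibitors blocking the TRPC4 calcium response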
T1 sequence (Q9QUQ5 whole entry): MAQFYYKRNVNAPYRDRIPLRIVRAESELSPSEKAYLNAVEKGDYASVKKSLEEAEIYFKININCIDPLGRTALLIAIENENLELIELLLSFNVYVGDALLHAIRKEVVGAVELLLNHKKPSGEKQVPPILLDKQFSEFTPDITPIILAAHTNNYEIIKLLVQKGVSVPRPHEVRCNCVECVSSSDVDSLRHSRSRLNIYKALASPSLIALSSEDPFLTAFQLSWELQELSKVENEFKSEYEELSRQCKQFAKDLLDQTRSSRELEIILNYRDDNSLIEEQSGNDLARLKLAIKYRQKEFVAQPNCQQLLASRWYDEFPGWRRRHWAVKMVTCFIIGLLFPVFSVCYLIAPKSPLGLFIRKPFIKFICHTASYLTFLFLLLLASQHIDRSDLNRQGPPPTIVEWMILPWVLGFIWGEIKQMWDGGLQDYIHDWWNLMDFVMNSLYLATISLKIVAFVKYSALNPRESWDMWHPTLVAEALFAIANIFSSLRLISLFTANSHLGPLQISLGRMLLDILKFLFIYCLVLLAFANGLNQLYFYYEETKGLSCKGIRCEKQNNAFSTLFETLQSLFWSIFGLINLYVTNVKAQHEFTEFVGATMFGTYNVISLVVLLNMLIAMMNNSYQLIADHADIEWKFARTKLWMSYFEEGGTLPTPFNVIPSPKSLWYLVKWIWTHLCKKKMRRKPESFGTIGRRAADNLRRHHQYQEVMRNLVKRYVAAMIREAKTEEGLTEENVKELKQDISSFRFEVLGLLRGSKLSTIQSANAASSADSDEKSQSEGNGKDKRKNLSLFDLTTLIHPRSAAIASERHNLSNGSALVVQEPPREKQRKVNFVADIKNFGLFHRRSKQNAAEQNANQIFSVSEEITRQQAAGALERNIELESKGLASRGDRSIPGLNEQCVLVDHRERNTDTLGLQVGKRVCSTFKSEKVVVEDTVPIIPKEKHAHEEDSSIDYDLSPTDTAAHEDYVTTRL

[2] = molecular target: DNA dC->dU-editing enzyme APOBEC-3G (Homo sapiens, UniProt Q9HC16); assay: Dose Response confirmation of small molecule APOBEC3G DNA Deaminase Inhibitors via a fluorescence-based single-stranded DNA deaminase assay. [Related pubchem assays (depositor defined):AID493012, AID493028]; format: functional
DNA dC->dU-editing enzyme APOBEC-3G, sequence (Q9HC16 whole entry): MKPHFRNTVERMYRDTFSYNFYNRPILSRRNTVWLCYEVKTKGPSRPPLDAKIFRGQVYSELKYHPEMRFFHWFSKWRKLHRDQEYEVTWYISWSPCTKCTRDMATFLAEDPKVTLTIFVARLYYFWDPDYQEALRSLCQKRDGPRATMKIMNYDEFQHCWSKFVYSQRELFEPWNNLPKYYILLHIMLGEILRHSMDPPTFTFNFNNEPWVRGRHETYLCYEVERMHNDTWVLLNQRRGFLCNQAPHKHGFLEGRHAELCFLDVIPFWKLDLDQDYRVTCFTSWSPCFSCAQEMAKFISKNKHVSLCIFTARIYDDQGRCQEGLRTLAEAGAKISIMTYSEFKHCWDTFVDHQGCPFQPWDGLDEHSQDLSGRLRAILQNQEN

[3] = molecular target: FAD-linked sulfhydryl oxidase ALR (Homo sapiens, UniProt P55789); assay: inhibitors of human ALR sulfhydryl oxidase, dose response, biochemical, H2O2 detection, luminescence, cherry-pick (AID 493248)
FAD-linked sulfhydryl oxidase ALR, sequence (P55789 whole entry): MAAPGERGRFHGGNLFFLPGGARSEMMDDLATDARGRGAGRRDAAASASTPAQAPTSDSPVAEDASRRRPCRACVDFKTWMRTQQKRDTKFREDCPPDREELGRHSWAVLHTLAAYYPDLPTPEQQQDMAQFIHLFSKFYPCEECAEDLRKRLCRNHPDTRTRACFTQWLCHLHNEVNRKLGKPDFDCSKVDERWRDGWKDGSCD

[4] = molecular target: T2, Rac GTPase-activating protein 1 (Homo sapiens, UniProt Q9H0H5); assay: MgcRacGAP GTPase-activating activity inhibitors, confirmation, biochemical, ADP Hunter fluorescence, primary and confirmatory (AID 624330); format: functional
T2 sequence (Q9H0H5 whole entry): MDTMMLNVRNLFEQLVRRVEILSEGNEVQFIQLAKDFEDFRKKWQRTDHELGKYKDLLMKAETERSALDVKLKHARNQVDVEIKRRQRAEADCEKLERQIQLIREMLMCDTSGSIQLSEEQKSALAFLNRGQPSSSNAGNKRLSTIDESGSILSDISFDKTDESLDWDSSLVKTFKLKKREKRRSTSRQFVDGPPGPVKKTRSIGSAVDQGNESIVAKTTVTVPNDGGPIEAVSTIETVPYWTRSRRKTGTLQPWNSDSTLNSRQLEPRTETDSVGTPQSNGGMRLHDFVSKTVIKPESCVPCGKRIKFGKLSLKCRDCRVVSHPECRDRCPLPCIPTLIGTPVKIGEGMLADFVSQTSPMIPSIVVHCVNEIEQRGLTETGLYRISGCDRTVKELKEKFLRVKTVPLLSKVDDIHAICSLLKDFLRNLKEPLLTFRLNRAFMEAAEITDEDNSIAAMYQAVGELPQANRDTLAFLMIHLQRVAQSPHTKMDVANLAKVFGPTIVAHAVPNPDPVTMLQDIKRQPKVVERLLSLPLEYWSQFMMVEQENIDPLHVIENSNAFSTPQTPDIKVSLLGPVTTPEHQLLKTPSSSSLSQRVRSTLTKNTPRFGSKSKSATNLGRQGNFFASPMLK

[5] = molecular target: Glyceraldehyde-3-phosphate dehydrogenase (Homo sapiens, UniProt P04406)
Glyceraldehyde-3-phosphate dehydrogenase, sequence (P04406 whole entry): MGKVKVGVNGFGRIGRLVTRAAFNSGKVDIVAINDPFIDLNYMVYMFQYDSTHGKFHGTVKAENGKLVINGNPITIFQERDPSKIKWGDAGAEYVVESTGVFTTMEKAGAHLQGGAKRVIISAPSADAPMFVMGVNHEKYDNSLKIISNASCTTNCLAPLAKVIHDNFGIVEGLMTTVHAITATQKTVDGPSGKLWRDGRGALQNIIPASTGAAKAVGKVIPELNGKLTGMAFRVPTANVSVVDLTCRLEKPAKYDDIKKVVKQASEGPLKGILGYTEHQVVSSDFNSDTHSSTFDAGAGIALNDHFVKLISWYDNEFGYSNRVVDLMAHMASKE

[6] = molecular target: T3, Alkaline phosphatase, tissue-nonspecific isozyme (Homo sapiens, UniProt P05186); assay: human TNAP enzyme inhibitors, SAR follow-up, biochemical, luminescent, dose response (AID 1056)
T3 sequence (P05186 whole entry): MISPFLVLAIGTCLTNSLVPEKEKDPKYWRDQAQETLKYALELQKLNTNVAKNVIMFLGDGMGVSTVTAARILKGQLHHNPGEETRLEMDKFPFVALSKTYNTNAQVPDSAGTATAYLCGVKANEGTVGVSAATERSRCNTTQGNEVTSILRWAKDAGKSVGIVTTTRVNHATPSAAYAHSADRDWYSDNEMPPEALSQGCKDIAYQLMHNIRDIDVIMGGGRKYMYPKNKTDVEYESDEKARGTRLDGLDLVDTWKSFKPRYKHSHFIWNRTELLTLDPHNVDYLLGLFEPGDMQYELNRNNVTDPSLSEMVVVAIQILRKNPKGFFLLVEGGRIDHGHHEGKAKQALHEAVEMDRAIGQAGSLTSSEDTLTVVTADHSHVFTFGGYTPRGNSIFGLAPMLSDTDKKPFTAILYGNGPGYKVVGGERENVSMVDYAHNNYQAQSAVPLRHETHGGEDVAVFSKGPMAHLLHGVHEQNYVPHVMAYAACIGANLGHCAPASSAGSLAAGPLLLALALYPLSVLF

[7] = molecular target: Glucose-6-phosphate 1-dehydrogenase (Homo sapiens, UniProt P11413); assay: human G6PD enzyme inhibitors, dose response, selectivity assay for P. falciparum G6PD inhibitor project, biochemical, fluorescence (AID 504792); format: functional
Glucose-6-phosphate 1-dehydrogenase, sequence (P11413 whole entry): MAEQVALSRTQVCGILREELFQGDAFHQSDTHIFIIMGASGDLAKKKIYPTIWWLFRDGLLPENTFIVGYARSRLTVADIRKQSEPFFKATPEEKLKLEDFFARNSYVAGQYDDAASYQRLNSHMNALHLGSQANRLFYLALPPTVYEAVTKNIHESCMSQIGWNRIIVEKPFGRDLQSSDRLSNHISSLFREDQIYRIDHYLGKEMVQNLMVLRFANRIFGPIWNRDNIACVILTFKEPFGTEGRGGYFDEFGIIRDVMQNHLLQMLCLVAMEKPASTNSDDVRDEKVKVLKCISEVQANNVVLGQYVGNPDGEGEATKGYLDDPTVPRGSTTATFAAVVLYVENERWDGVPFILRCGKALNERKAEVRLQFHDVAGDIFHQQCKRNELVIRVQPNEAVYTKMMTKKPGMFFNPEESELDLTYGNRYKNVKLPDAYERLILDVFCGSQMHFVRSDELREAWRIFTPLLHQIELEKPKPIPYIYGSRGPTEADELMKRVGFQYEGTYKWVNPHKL

[8] = NIH-3T3 fibroblast cytotoxicity, dose response, cytotoxicity control, cell-based, fluorescence, Alamar Blue, secondary assay (AID 2327); format: functional;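 further: NIH-3T3 mouse fibroblasts cultured with fluconazole at 8 µg/mL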
[9] = system: Streptococcus sp. 'group A'; assay: growth inhibition of control SK(-) GAS strain, dose response, counter-screen for streptokinase expression inhibitor project, luminescence, kanamycin, BacTiterGlo, confirmation (AID 1900); format: functional, organism-based
[10] = C. albicans growth with fluconazole, confirmation, fluorescence, retest (AID 2467); format: functional, cell-based
[11] = microbe, parasite or virus in culture; format: functional; conditions: Mycobacterium tuberculosis
Streptococcus = assay: Group A Streptococcus viability loss, dose response, counter-screen for streptokinase expression inhibitor project, luminescence, BacTiterGlo (AID 1915); format: functional, organism-based;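 further: potency for reduction of bacterial viability or growth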
[12] = molecular target: T1, Short transient receptor potential channel 4; assay: mouse TRPC4 channel activators, dose response, cell-based, HEK293 TRPC4/mu-opioid, Fluo-4 calcium (AID 434937); format: functional
Vero [13] = assay: cells; format: functional, cell-based; conditions: Chlorocebus sabaeus
Vero [14] = assay: cells; format: functional; conditions: Chlorocebus sabaeus
[15] = inhibitors of firefly luciferase expression or activity, dose response, H4 neuroglioma cells, luminescence (AID 1990); format: functional, cell-based
cells [16] = format: functional, cell-based
[17] = Luminescence Cell-Based Dose Response HTS to Identify Inhibitors of 5'UTR Stem-Loop Driven Prion Protein mRNA Translation in H4 Neuroglioblastoma Cells. [Related pubchem assays: 1827 (Project Summary), 1813 (Primary HTS)]; format: functional
[18] = inhibitors of SNCA 5'UTR-driven reporter translation, confirmation, H4 neuroglioma cells, luminescence (AID 1988); format: functional, cell-based
Large T antigen = Large T antigen (Simian virus 40, UniProt P03070); format: functional, Betapolyomavirus macacae;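 further: Confirmatory-stage PubChem screen for compounds that inhibit SV40 T antigen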
Large T antigen, sequence (P03070 whole entry): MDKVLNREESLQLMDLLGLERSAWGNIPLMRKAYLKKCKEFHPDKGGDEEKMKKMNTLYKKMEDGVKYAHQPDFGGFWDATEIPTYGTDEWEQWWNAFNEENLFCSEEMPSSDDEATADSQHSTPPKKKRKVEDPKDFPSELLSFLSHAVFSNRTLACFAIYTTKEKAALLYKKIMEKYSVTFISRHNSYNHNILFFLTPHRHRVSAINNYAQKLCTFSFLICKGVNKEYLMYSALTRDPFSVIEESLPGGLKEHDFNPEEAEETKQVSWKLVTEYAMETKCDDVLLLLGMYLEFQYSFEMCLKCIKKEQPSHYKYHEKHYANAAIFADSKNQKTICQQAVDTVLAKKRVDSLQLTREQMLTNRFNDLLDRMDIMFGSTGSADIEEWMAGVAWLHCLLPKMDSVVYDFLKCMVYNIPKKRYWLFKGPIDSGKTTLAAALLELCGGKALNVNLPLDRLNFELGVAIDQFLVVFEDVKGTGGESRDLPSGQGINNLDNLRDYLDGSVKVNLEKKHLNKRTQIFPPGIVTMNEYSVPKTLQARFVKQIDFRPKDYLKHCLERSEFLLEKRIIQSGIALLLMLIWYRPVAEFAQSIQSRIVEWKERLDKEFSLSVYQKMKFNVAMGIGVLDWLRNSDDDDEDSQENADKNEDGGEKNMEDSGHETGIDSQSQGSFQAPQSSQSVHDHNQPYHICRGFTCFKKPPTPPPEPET

cells [19] = format: functional, cell-based; remark: listed apart in the source
[20] = THP-1 cell cytotoxicity, dose response, cytotoxicity control for non-replicating M. tuberculosis project (AID 489025); format: functional
[21] = Vero E6 cell cytotoxicity, dose response, cytotoxicity control for non-replicating M. tuberculosis project, secondary assay (AID 492998); format: functional, VeroE6; conditions: Vero C1008
Nonstructural protein 1 = Nonstructural protein 1 (Influenza A virus, UniProt Q194T2); format: functional, Influenza A virus (A/California/07/2009(H1N1))
Nonstructural protein 1, sequence (Q194T2 whole entry): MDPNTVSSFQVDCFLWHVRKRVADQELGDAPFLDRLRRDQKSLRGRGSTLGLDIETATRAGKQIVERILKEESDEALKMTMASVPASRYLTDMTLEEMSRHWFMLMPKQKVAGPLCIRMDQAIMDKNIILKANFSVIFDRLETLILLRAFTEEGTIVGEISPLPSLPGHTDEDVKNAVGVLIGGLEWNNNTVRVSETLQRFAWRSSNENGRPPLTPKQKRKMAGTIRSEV

cells [22] = format: functional
[23] = molecular target: T4, Heat shock factor protein 1 (Mus musculus, UniProt P38532); assay: inhibition of MG132-induced HSE-luciferase signal, confirmation, cell-based, NIH3T3, luminescence, dose retest (AID 2382); format: functional;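 further: NIH3T3 fibroblasts with HSF1-driven luciferase reporter stressed by proteasome inhibitor MG132; luminescence from HSF1-driven luciferase expression after 8 hours of MG132 stress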
T4 sequence (P38532 whole entry): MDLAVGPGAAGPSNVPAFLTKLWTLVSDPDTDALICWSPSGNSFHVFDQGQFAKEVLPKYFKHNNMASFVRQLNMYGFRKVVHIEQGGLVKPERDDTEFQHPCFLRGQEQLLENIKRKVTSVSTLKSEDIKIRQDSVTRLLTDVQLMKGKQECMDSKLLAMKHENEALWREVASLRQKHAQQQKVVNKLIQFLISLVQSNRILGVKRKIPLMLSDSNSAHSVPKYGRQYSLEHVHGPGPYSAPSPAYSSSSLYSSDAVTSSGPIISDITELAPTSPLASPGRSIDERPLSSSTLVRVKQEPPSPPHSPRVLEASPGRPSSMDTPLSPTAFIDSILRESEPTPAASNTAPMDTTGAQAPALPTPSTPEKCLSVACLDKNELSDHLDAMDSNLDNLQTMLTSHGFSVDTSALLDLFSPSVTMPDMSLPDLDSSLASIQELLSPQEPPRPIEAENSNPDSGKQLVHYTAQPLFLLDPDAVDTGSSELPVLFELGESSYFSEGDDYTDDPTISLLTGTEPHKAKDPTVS

CN(CC(=O)NC1CCCc2ccccc21)C1CCCCC1 (centres undefined)
EC50 [1]: 13.3 µM (active)

O=S(=O)(N=S1CC=CCN1S(=O)(=O)c1ccccc1)c1ccccc1 (centres undefined)
IC50 [2]: 2.32 µM (active) | AC50 [3]: 2.19 µM (active) | IC50 [4]: 105 µM (active)

CCn1cnc(-c2cccnc2)c1
IC50 [5]: > 100 µM (not active) | IC50 [6]: > 100 µM (inactive)

c1cnc(-c2cccnc2)nc1
IC50 [5]: > 100 µM (not active) | IC50 [6]: > 100 µM (inactive)

COC(=O)[C@H](CCSC)NC(=O)c1cc2c3ccccc3nc-2c[nH]1
IC50 [7]: > 80 µM (inactive) | IC50 [2]: 59.6 µM (active)

O=C(O)c1cc(-c2ccc3c(c2)OCCO3)n[nH]1
IC50 [5]: > 100 µM (not active) | IC50 [6]: 49.8 µM (active)

CC(C)(C)c1ccc(C(=O)NC(=S)NNC(=O)COc2ccccc2)cc1
EC50 [8]: > 150 µM (inactive) | EC50 [9]: 0.067 µM (active) | EC50 [10]: 1.58 µM (active) | CC50 [11]: 34.1 µM (active) | EC50 (Streptococcus): 1.76 µM (active) | EC50 [1]: 6.68 µM (active) | EC50 [12]: 5.96 µM (active) | IC50 (Vero [13]): 23 µM (active) | CC50 (Vero [14]): > 25 µM (active)

Cc1ccccc1Nc1c(-c2ccccn2)nc2ccccn12
EC50 [15]: 11 µM (active) | EC50 (cells [16]): 221 µM (active) | EC50 [17]: 10.4 µM (active) | EC50 [18]: 10.5 µM (active) | IC50 (Large T antigen): < 0.39 µM (active) | EC50 (cells [19]): > 350 µM (not active) | CC50 [20]: 13.7 µM (active) | CC50 [21]: 3.7 µM (active) | IC50 (Nonstructural protein 1): 14.7 µM (active) | AC50 [3]: 1.37 µM (active) | IC50 (cells [22]): 1.75 µM (active)

COc1ccccc1NC(=O)c1ccc([N+](=O)[O-])o1
EC50 [23]: > 195 µM (not active) | CC50 [20]: 17.5 µM (active) | CC50 [21]: 5.96 µM (active) | IC50 (cells [22]): 9.55 µM (active)

O=c1c2ccccc2[nH]c(=S)n1Cc1cccnc1
EC50 [1]: 3.35 µM (active) | EC50 [12]: 2.66 µM (active)

COc1cccc(Cn2c(Oc3ccccc3)nc3c2c(=O)n(C)c(=O)n3C)c1
EC50 [1]: 7.5 µM (active)
